Values after ≈ are worked out from the molar mass of the structure shown.
Assays:
Staphylococcus aureus [1] = test: Antibacterial activity against Staphylococcus aureus ATCC 6538 after 24 hrs by microdilution method; assay type: functional; conditions: ATCC 6538, 24 h
Bacillus cereus [2] = test: Antibacterial activity against Bacillus cereus clinical isolate after 24 hrs by microdilution method; assay type: functional
Micrococcus flavus [3] = test: Antibacterial activity against Micrococcus flavus ATCC 10240 after 24 hrs by microdilution method; assay type: functional; conditions: ATCC 10240, 24 h
Listeria monocytogenes [4] = test: Antibacterial activity against Listeria monocytogenes NCTC 7973 after 24 hrs by microdilution method; assay type: functional; conditions: NCTC 7973, 24 h
Pseudomonas aeruginosa [5] = test: Antibacterial activity against Pseudomonas aeruginosa ATCC 27853 after 24 hrs by microdilution method; assay type: functional; conditions: ATCC 27853, 24 h
Salmonella typhimurium [6] = test: Antibacterial activity against Salmonella Typhimurium ATCC 13311 after 24 hrs by microdilution method; assay type: functional, Salmonella enterica subsp. enterica serovar Typhimurium; conditions: Salmonella enterica, ATCC 13311, 24 h
Escherichia coli [7] = test: Antibacterial activity against Escherichia coli ATCC 35210 after 24 hrs by microdilution method; assay type: functional; conditions: ATCC 35210, 24 h
Enterococcus faecalis [8] = test: Antibacterial activity against Enterococcus faecalis isolate obtained from human after 24 hrs by microdilution method; assay type: functional
Staphylococcus aureus [9] = test: Bactericidal activity against Staphylococcus aureus ATCC 6538 after 24 hrs; assay type: functional; conditions: ATCC 6538, 24 h
Bacillus cereus [10] = test: Bactericidal activity against Bacillus cereus clinical isolate after 24 hrs; assay type: functional
Micrococcus flavus [11] = test: Bactericidal activity against Micrococcus flavus ATCC 10240 after 24 hrs; assay type: functional; conditions: ATCC 10240, 24 h
Listeria monocytogenes [12] = test: Bactericidal activity against Listeria monocytogenes NCTC 7973 after 24 hrs; assay type: functional; conditions: NCTC 7973, 24 h
Pseudomonas aeruginosa [13] = test: Bactericidal activity against Pseudomonas aeruginosa ATCC 27853 after 24 hrs; assay type: functional; conditions: ATCC 27853, 24 h
Salmonella typhimurium [14] = test: Bactericidal activity against Salmonella Typhimurium ATCC 13311 after 24 hrs; assay type: functional, Salmonella enterica subsp. enterica serovar Typhimurium; conditions: Salmonella enterica, ATCC 13311, 24 h
Escherichia coli [15] = test: Bactericidal activity against Escherichia coli ATCC 35210 after 24 hrs; assay type: functional; conditions: ATCC 35210, 24 h
Enterococcus faecalis [16] = test: Bactericidal activity against Enterococcus faecalis isolate obtained from human after 24 hrs; assay type: functional
Aspergillus ochraceus [17] = test: Antifungal activity against Aspergillus ochraceus ATCC 12066 after 72 hrs by serial dilution method; assay type: functional; conditions: ATCC 12066, 72 h
Aspergillus versicolor [18] = test: Antifungal activity against Aspergillus versicolor ATCC 11730 after 72 hrs by serial dilution method; assay type: functional; conditions: ATCC 11730, 72 h
Aspergillus niger [19] = test: Antifungal activity against Aspergillus niger ATCC 6275 after 72 hrs by serial dilution method; assay type: functional; conditions: ATCC 6275, 72 h
Aspergillus fumigatus [20] = test: Antifungal activity against Aspergillus fumigatus plant isolate after 72 hrs by serial dilution method; assay type: functional
Trichoderma viride [21] = test: Antifungal activity against Trichoderma viride IAM 5061 after 72 hrs by serial dilution method; assay type: functional; conditions: IAM 5061, 72 h
Penicillium ochrochloron [22] = test: Antifungal activity against Penicillium ochrochloron ATCC 9112 after 72 hrs by serial dilution method; assay type: functional; conditions: ATCC 9112, 72 h
Talaromyces funiculosus [23] = test: Antifungal activity against Penicillium funiculosum ATCC 36839 after 72 hrs by serial dilution method; assay type: functional; conditions: ATCC 36839, 72 h
[24] = Antifungal activity against Fusarium sporotrichioides IMT 496 after 72 hrs by serial dilution method; assay type: functional
Aspergillus ochraceus [25] = test: Fungicidal activity against Aspergillus ochraceus ATCC 12066 after 72 hrs; assay type: functional; conditions: ATCC 12066, 72 h
Aspergillus versicolor [26] = test: Fungicidal activity against Aspergillus versicolor ATCC 11730 after 72 hrs; assay type: functional; conditions: ATCC 11730, 72 h
Aspergillus niger [27] = test: Fungicidal activity against Aspergillus niger ATCC 6275 after 72 hrs; assay type: functional; conditions: ATCC 6275, 72 h
Aspergillus fumigatus [28] = test: Fungicidal activity against Aspergillus fumigatus plant isolate after 72 hrs; assay type: functional
Trichoderma viride [29] = test: Fungicidal activity against Trichoderma viride IAM 5061 after 72 hrs; assay type: functional; conditions: IAM 5061, 72 h
Penicillium ochrochloron [30] = test: Fungicidal activity against Penicillium ochrochloron ATCC 9112 after 72 hrs; assay type: functional; conditions: ATCC 9112, 72 h
Talaromyces funiculosus [31] = test: Fungicidal activity against Penicillium funiculosum ATCC 36839 after 72 hrs; assay type: functional; conditions: ATCC 36839, 72 h
[32] = tested on: Fusarium sporotrichioides; test: Fungicidal activity against Fusarium sporotrichioides IMT 496 after 72 hrs; assay type: functional; conditions: IMT 496, 72 h
Micrococcus flavus [33] = test: Ratio of Ampicillin MIC to compound MIC for Micrococcus flavus ATCC 10240 after 24 hrs; assay type: functional

Row | Structure (SMILES) | MIC (Staphylococcus aureus [1]) [µM] | MIC (Bacillus cereus [2]) [µM] | MIC (Micrococcus flavus [3]) [µM] | MIC (Listeria monocytogenes [4]) [µM] | MIC (Pseudomonas aeruginosa [5]) [µM] | MIC (Salmonella typhimurium [6]) [µM] | MIC (Escherichia coli [7]) [µM] | MIC (Enterococcus faecalis [8]) [µM] | MBC (Staphylococcus aureus [9]) [µM] | MBC (Bacillus cereus [10]) [µM] | MBC (Micrococcus flavus [11]) [µM] | MBC (Listeria monocytogenes [12]) [µM] | MBC (Pseudomonas aeruginosa [13]) [µM] | MBC (Salmonella typhimurium [14]) [µM] | MBC (Escherichia coli [15]) [µM] | MBC (Enterococcus faecalis [16]) [µM] | MIC (Aspergillus ochraceus [17]) [µM] | MIC (Aspergillus versicolor [18]) [µM] | MIC (Aspergillus niger [19]) [µM] | MIC (Aspergillus fumigatus [20]) [µM] | also measured
1 | CNc1nc(C)c(C(=O)/C=C/c2ccc(Cl)cc2)s1 | 513 (≈ 150 µg/mL) | 342 (≈ 100 µg/mL) | 85.4 (≈ 25 µg/mL) | 342 (≈ 100 µg/mL) | 256 (≈ 75.1 µg/mL) | 290 (≈ 85.1 µg/mL) | 290 (≈ 85.1 µg/mL) | 171 (≈ 50.1 µg/mL) | 684 (≈ 200 µg/mL) | 513 (≈ 150 µg/mL) | 342 (≈ 100 µg/mL) | 513 (≈ 150 µg/mL) | 342 (≈ 100 µg/mL) | 342 (≈ 100 µg/mL) | 342 (≈ 100 µg/mL) | 342 (≈ 100 µg/mL) | 340 (≈ 99.5 µg/mL) | 170 (≈ 49.8 µg/mL) | 170 (≈ 49.8 µg/mL) | 170 (≈ 49.8 µg/mL) | MIC (Trichoderma viride [21]): 170 µM (≈ 49.8 µg/mL); MIC (Penicillium ochrochloron [22]): 340 µM (≈ 99.5 µg/mL); MIC (Talaromyces funiculosus [23]): 170 µM (≈ 49.8 µg/mL); MIC (10'-2 umol/ml) [24]: 17; MFC (Aspergillus ochraceus [25]): 513 µM (≈ 150 µg/mL); MFC (Aspergillus versicolor [26]): 340 µM (≈ 99.5 µg/mL); MFC (Aspergillus niger [27]): 340 µM (≈ 99.5 µg/mL); MFC (Aspergillus fumigatus [28]): 340 µM (≈ 99.5 µg/mL); MFC (Trichoderma viride [29]): 340 µM (≈ 99.5 µg/mL); MFC (Penicillium ochrochloron [30]): 513 µM (≈ 150 µg/mL); MFC (Talaromyces funiculosus [31]): 340 µM (≈ 99.5 µg/mL); MFC [32]: 170 µM (≈ 49.8 µg/mL); Ratio (Micrococcus flavus [33]): 3
2 | CNc1nc(C)c(C(=O)/C=C/c2ccc([N+](=O)[O-])cc2)s1 | 330 (≈ 100 µg/mL) | 330 (≈ 100 µg/mL) | 330 (≈ 100 µg/mL) | 330 (≈ 100 µg/mL) | 330 (≈ 100 µg/mL) | 248 (≈ 75.1 µg/mL) | 248 (≈ 75.1 µg/mL) | 165 (≈ 50.1 µg/mL) | 495 (≈ 150 µg/mL) | 495 (≈ 150 µg/mL) | 495 (≈ 150 µg/mL) | 495 (≈ 150 µg/mL) | 495 (≈ 150 µg/mL) | 330 (≈ 100 µg/mL) | 330 (≈ 100 µg/mL) | 330 (≈ 100 µg/mL) | 250 (≈ 75.8 µg/mL) | 330 (≈ 100 µg/mL) | 330 (≈ 100 µg/mL) | 330 (≈ 100 µg/mL) | MIC (Trichoderma viride [21]): 165 µM (≈ 50.1 µg/mL); MIC (Penicillium ochrochloron [22]): 330 µM (≈ 100 µg/mL); MIC (Talaromyces funiculosus [23]): 330 µM (≈ 100 µg/mL); MIC (10'-2 umol/ml) [24]: 16.5; MFC (Aspergillus ochraceus [25]): 330 µM (≈ 100 µg/mL); MFC (Aspergillus versicolor [26]): 496 µM (≈ 150 µg/mL); MFC (Aspergillus niger [27]): 825 µM (≈ 250 µg/mL); MFC (Aspergillus fumigatus [28]): 496 µM (≈ 150 µg/mL); MFC (Trichoderma viride [29]): 330 µM (≈ 100 µg/mL); MFC (Penicillium ochrochloron [30]): 496 µM (≈ 150 µg/mL); MFC (Talaromyces funiculosus [31]): 496 µM (≈ 150 µg/mL); MFC [32]: 660 µM (≈ 200 µg/mL)

— ChEMBL document CHEMBL1782000, “Thiazole-based chalcones as potent antimicrobial agents. Synthesis and biological evaluation” (2011)
